Experiments:
[1] = system: Crude diglycosidase; test: Examination of substrate concentration in the conversion into isoflavone aglycons by diglycosidase using soybean materials; assay type: biochemical, Penicillium multicolor IAM7153; conditions: for Decomposition efficiency: ratio of each glycoside/aglycon within its isoflavone family: roasted soy flour;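 for Decomposition efficiency: ratio of each glycoside/aglycon within its isoflavone family: percent of the isoflavone family total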
Outline: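 Reaction at 55° C, shaken, pH 4.0 (20 mM acetate), using crude diglycosidase from a 1.88 AU/mL enzyme solution on soy flour, soymilk, defatted soybean or soy protein concentrate at 2, 5, 10, 20 or 30% (w/v). Isoflavone aglycons quantified by HPLC of ethanol extracts at 0, 1, 3, 6 h.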

[2] = system: β-Xylosidase derived from pectinase G; test: Reactivity toward various isoflavone glycosides (HPLC); assay type: biochemical; design: unit not given here; conditions: 55 °C, pH 4.0
Protocol: (§1) Diglycosidase was diluted with an acetate buffer of pH 4.0 to prepare a 0.75 AU/mL enzyme solution. As references, a similar operation was conducted using β-glucosidase (manufactured by Fluka) derived from Aspergillus niger, β-glucosidase (manufactured by Sigma) derived from almond, β-xylosidase derived from pectinase G (manufactured by Amano Enzyme Inc.). Each of purified products of isoflavone glycosides (glycitin, acetylglycitin, malonylglycitin, daidzin, acetyldaidzin, malonyldaidzin, genistin, acetylgenistin, malonylgenistin, all manufactured by Nacalai Tesque, Inc.) was dissolved in methanol to prepare each 2 mM substrate solution. The reaction was carried out by mixing 10 μL of a substrate solution, 200 μL of 20 mM acetate buffer (pH 4.0), and 40 μL of each purified enzyme solution at a total liquid volume of 250 μL. The reaction was carried out at 55° C. and isolation of an aglycon isoflavone from an isoflavone glycoside in the reaction mixture was detected by HLPC at 0, 1, 3, and 6 hours of the reaction.
(§2) To the reaction mixture was added 700 μL of ethanol, followed by stirring and ultrasonication. After centrifugation at 15,000 rpm and 4° C. for 10 minutes, the supernatant was filtered through a filter and then the filtrate was applied to HPLC.
(§3) The isoflavone glycoside and aglycon isoflavone contained in the filtrate was separated and detected by a high performance liquid chromatography (HPLC, Shimadzu CLASS LC-10 system) using TOSOH TSK gel ODS-80TM column (manufactured by Tosoh Corporation). […] The absorbance at 260 nm was detected by a UV detector (Shimadzu, SPD-10AV). Using purified products (manufactured by Nacalai Tesque, Inc.) of the above isoflavone glycosides and aglycon isoflavones, the isoflavone glycoside and aglycon isoflavone were quantitatively determined according to a calibration curve method. By the way, unless otherwise stated, the measuring conditions of HPLC herein mean those described in the example.

[3] = system: β-Glucosidase derived from almond; test: as above; assay type: biochemical; design: unit not given here; conditions: 55 °C, pH 4.0
Protocol: as §1, §2, §3

[4] = substrate concentration 2%, heat treatment of enzyme no, reaction time 0 h
[5] = substrate concentration 2%, heat treatment of enzyme no, reaction time 1 h
[6] = substrate concentration 2%, heat treatment of enzyme no, reaction time 3 h
[7] = substrate concentration 2%, heat treatment of enzyme no, reaction time 6 h
[8] = substrate concentration 2%, heat treatment of enzyme yes, reaction time 6 h
[9] = substrate concentration 5%, heat treatment of enzyme no, reaction time 0 h
[10] = substrate concentration 5%, heat treatment of enzyme no, reaction time 1 h
[11] = substrate concentration 5%, heat treatment of enzyme no, reaction time 3 h
[12] = substrate concentration 5%, heat treatment of enzyme no, reaction time 6 h
[13] = substrate concentration 5%, heat treatment of enzyme yes, reaction time 6 h
[14] = substrate concentration 10%, heat treatment of enzyme no, reaction time 0 h
[15] = substrate concentration 10%, heat treatment of enzyme no, reaction time 1 h
[16] = substrate concentration 10%, heat treatment of enzyme no, reaction time 3 h
[17] = substrate concentration 10%, heat treatment of enzyme no, reaction time 6 h
[18] = substrate concentration 10%, heat treatment of enzyme yes, reaction time 6 h

For `CC(=O)OC[C@H]1O[C@@H](Oc2ccc3c(=O)c(-c4ccc(O)cc4)coc3c2)[C@H](O)[C@@H](O)[C@@H]1O` [acetyldaidzin, 6″-O-acetyldaidzin], the “Decomposition efficiency: ratio of each glycoside/aglycon within its isoflavone family” value [1, 4] was 47.6%, the “Decomposition efficiency: ratio of each glycoside/aglycon within its isoflavone family” value [1, 5] was 9.2% and the “Decomposition efficiency: ratio of each glycoside/aglycon within its isoflavone family” value [1, 6] was “not detected”. For the same molecule, the “Decomposition efficiency: ratio of each glycoside/aglycon within its isoflavone family” value [1, 7] was “not detected”, the “Decomposition efficiency: ratio of each glycoside/aglycon within its isoflavone family” value [1, 8] was 47.2% and the “Decomposition efficiency: ratio of each glycoside/aglycon within its isoflavone family” value [1, 9] was 46.1%. For the same molecule, the “Decomposition efficiency: ratio of each glycoside/aglycon within its isoflavone family” value [1, 10] was 20.9%, the “Decomposition efficiency: ratio of each glycoside/aglycon within its isoflavone family” value [1, 11] was 12.5% and the “Decomposition efficiency: ratio of each glycoside/aglycon within its isoflavone family” value [1, 12] was 6.8%. The “Decomposition efficiency: ratio of each glycoside/aglycon within its isoflavone family” value [1, 13] was 46.1%, the “Decomposition efficiency: ratio of each glycoside/aglycon within its isoflavone family” value [1, 14] was 38.5% and the “Decomposition efficiency: ratio of each glycoside/aglycon within its isoflavone family” value [1, 15] was 30.5%. The “Decomposition efficiency: ratio of each glycoside/aglycon within its isoflavone family” value [1, 16] was 21.5%, the “Decomposition efficiency: ratio of each glycoside/aglycon within its isoflavone family” value [1, 17] was 14.9% and the “Decomposition efficiency: ratio of each glycoside/aglycon within its isoflavone family” value [1, 18] was 47.7%. The “Decomposition efficiency: ratio of each glycoside/aglycon within its isoflavone family” value ([1]; substrate concentration 20%, heat treatment of enzyme no, reaction time 0 h) was 46.1%, the “Decomposition efficiency: ratio of each glycoside/aglycon within its isoflavone family” value ([1]; substrate concentration 20%, heat treatment of enzyme no, reaction time 1 h) was 40.7% and the “Decomposition efficiency: ratio of each glycoside/aglycon within its isoflavone family” value ([1]; substrate concentration 20%, heat treatment of enzyme no, reaction time 3 h) was 32.6%. For the same molecule, the “Decomposition efficiency: ratio of each glycoside/aglycon within its isoflavone family” value ([1]; substrate concentration 20%, heat treatment of enzyme no, reaction time 6 h) was 25.1%, the “Decomposition efficiency: ratio of each glycoside/aglycon within its isoflavone family” value ([1]; substrate concentration 20%, heat treatment of enzyme yes, reaction time 6 h) was 47.2% and the “Decomposition efficiency: ratio of each glycoside/aglycon within its isoflavone family” value ([1]; substrate concentration 30%, heat treatment of enzyme no, reaction time 0 h) was 47.6%. For the same molecule, the “Decomposition efficiency: ratio of each glycoside/aglycon within its isoflavone family” value ([1]; substrate concentration 30%, heat treatment of enzyme no, reaction time 1 h) was 46.4%, the “Decomposition efficiency: ratio of each glycoside/aglycon within its isoflavone family” value ([1]; substrate concentration 30%, heat treatment of enzyme no, reaction time 3 h) was 42.6% and the “Decomposition efficiency: ratio of each glycoside/aglycon within its isoflavone family” value ([1]; substrate concentration 30%, heat treatment of enzyme no, reaction time 6 h) was 34.3%. For the same molecule, the “Decomposition efficiency: ratio of each glycoside/aglycon within its isoflavone family” value ([1]; substrate concentration 30%, heat treatment of enzyme yes, reaction time 6 h) was 47.4%, the “Decomposition efficiency of daidzin family in defatted soybean” value [1, 4] was “not detected” and the “Decomposition efficiency of daidzin family in defatted soybean” value [1, 5] was “not detected”. For the same molecule, the “Decomposition efficiency of daidzin family in defatted soybean” value [1, 6] was “not detected”, the “Decomposition efficiency of daidzin family in defatted soybean” value [1, 7] was “not detected” and the “Decomposition efficiency of daidzin family in defatted soybean” value [1, 8] was “not detected”. The “Decomposition efficiency of daidzin family in defatted soybean” value [1, 9] was “not detected”, the “Decomposition efficiency of daidzin family in defatted soybean” value [1, 10] was “not detected” and the “Decomposition efficiency of daidzin family in defatted soybean” value [1, 11] was “not detected”. The “Decomposition efficiency of daidzin family in defatted soybean” value [1, 12] was “not detected”, the “Decomposition efficiency of daidzin family in defatted soybean” value [1, 13] was “not detected” and the “Decomposition efficiency of daidzin family in defatted soybean” value [1, 14] was “not detected”. For the same molecule, the “Decomposition efficiency of daidzin family in defatted soybean” value [1, 15] was “not detected”, the “Decomposition efficiency of daidzin family in defatted soybean” value [1, 16] was “not detected” and the “Decomposition efficiency of daidzin family in defatted soybean” value [1, 17] was “not detected”. For the same molecule, the “Decomposition efficiency of daidzin family in defatted soybean” value [1, 18] was “not detected”, the aglycon ([2]; Reaction time 0 h) was 0 and the glucoside ([2]; Reaction time 0 h) was 100. It also gave an aglycon ([2]; Reaction time 1 h) of 9.7, a glucoside ([2]; Reaction time 1 h) of 90.3 and an aglycon ([2]; Reaction time 3 h) of 1.3. For the same molecule, the glucoside ([2]; Reaction time 3 h) was 98.7, the aglycon ([2]; Reaction time 6 h) was 2.3 and the glucoside ([2]; Reaction time 6 h) was 97.7. For the same molecule, the aglycon ([3]; Reaction time 0 h) was 0.2, the glucoside ([3]; Reaction time 0 h) was 99.8 and the aglycon ([3]; Reaction time 1 h) was 0.5. For the same molecule, the glucoside ([3]; Reaction time 1 h) was 99.5, the aglycon ([3]; Reaction time 3 h) was 0.6 and the glucoside ([3]; Reaction time 3 h) was 99.4. The aglycon ([3]; Reaction time 6 h) was 0.6 and the glucoside ([3]; Reaction time 6 h) was 99.4.

From patent US7118895B2, “Process for producing aglycon by using diglycosidase and flavor-improved food containing the aglycon and converting agent to be used in the process” (Amano Enzyme Inc., priority 2000, dated 2006)
